Assay results taken from publication PMC11079024, “Identification of a family of species-selective complex I inhibitors as potential anthelmintics” (Nature Communications, 2024).
Several values for one entry are separate records, joined by “and”; a condition that tells them apart may be missing. Identical values can stand only once. Like-named read-outs stand apart in the source and are kept apart here.

What was measured:
[1] = test system: ben-1 mutant (ECA882) C. elegans; experiment: microbe, parasite or virus in culture; settings: Caenorhabditis elegans
Description: Liquid development and viability assays were adapted from a previously established chemical screening protocol (Burns et al.)[24]. In brief, a saturated culture of E. coli HB101 was concentrated 2-fold in liquid NGM and 40 μL of this suspension was distributed to each well of a 96-well flat-bottom culture plate. 0.5 μL chemical solution (or DMSO alone) was added to each well (1% DMSO v/v) using either a multi-channel pipette or a pinning tool (V&P Scientific). L1 worms synchronized from an embryo preparation performed the day prior were diluted to a concentration of ~2 worms/μL in M9 buffer; 10 μL worm suspension was then added to each well. Culture plates were sealed with parafilm and placed in a plastic container lined with wet paper towels to prevent evaporation. Containers were then incubated for 6 days at 20 °C with shaking at 165 rpm. Following incubation, 300 μL M9 was added to each well to decrease the turbidity of the HB101-NGM suspension. Single images of each microplate well were then taken on a Nikon Ti Eclipse inverted microscope (Nikon NIS Elements AR). Images were processed using Python scripts to isolate worm-associated pixels from background. Scores of worm development and viability were determined as the sum of worm-associated pixels in each well. Development/viability scores for each well were divided by the development /viability scores for the corresponding DMSO controls, resulting in a relative viability value for each chemical. At least three biological replicates were performed for each dose-response experiment; relative viability values were averaged across replicates. […]
anthelmintics. a. Chemical structures of four commercial benzimidazole anthelmintics (e.g., albendazole, […]
Dose response of four commercial […]
elegans strains: N2, wild type; ECA882, deletion (ben-1); ECA917, F200Y (ben-1); ECA1075, F167Y (ben-1); ECA1080, E198A (ben-1); CB3474, G104D (ben-1). The colour-coded scale denotes the phenotypic outcome of drug treatment (e.g., motility or viability) relative to DMSO controls; white/pale- […]
death and arrested development. c. […]
benzimidazole anthelmintics (blue) were conducted in C. elegans development and viability assays for wild type (N2) and ben-1 mutant (ECA882) C. elegans (see Supplementary Date File 1).
All data used for generation of dose-response curves is the mean of at least three […]
Supplementary Figure 7 (continued). Davie et al.

[2] = molecular target: C. elegans (N2) complex I (NADH:ubiquinone oxidoreductase) (Caenorhabditis elegans, UniProt P24887+Q93873+Q94360); experiment: biochemical; type: biochemical; settings: for Log IC50 C. elegans complex I: log10 of IC50 in µM
C. elegans (N2) complex I (NADH:ubiquinone oxidoreductase), sequence (Q94360 17-199): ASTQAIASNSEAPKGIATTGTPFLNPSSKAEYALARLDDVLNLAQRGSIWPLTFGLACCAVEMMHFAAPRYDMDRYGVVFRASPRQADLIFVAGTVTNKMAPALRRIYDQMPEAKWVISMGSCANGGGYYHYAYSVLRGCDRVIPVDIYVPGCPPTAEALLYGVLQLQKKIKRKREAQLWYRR
C. elegans (N2) complex I (NADH:ubiquinone oxidoreductase), sequence (P24887 whole entry): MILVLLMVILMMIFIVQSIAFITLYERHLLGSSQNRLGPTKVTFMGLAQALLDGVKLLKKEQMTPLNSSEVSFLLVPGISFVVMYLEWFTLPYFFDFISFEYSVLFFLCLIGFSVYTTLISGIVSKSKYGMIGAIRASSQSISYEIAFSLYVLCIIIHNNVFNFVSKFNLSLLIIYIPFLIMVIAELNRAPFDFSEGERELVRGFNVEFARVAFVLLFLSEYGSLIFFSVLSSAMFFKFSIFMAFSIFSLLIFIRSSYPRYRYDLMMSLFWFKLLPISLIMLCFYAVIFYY
C. elegans (N2) complex I (NADH:ubiquinone oxidoreductase), sequence (Q93873 31-482): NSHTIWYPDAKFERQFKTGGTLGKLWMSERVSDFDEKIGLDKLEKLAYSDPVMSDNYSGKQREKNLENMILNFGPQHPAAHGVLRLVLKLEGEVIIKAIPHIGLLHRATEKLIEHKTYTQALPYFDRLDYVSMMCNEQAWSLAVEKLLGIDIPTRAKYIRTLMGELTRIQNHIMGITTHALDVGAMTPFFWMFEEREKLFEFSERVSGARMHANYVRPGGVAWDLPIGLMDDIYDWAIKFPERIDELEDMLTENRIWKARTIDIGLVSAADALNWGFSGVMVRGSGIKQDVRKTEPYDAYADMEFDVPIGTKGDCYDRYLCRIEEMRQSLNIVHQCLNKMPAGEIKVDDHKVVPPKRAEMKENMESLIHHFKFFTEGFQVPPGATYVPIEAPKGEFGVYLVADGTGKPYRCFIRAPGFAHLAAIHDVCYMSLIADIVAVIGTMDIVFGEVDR
Description: (§1) Mitochondria were isolated from the following free-living nematode strains: C. elegans—N2, CB3474, ECA882, ECA917, ECA1075, ECA1080; C. briggsae—AF16; P. pacificus—PS312; and P. hermaphrodita—B178. With the exception of the P. hermaphrodita strain B178, adult worms of each strain were grown in bulk through liquid culture to obtain mitochondria in sufficient quantities. Due to poor growth in liquid media, mixed stage populations of P. hermaphrodita were washed off and collected from NGM plates seeded with OP50. The isolation of mitochondria from all free-living nematode strains followed the protocol previously outlined in Burns et al.[24]. In brief, a 1 L saturated culture of E. coli HB101 was concentrated 20-fold in 50 mL complete S-medium. ~500,000 L1 worms synchronized from an embryo preparation performed the day prior were added to the S-media/HB101 suspension and grown to adulthood over the course of 3.5 days at 20 °C with shaking at 165 rpm. Following growth, worms were collected in 10 ×15 mL conical tubes and washed 7 times in M9 buffer. Worm suspensions were then combined into a single 15 mL conical tube and diluted to a final volume of 15 mL with M9 buffer. 1 mL aliquots of worm suspension were then distributed to 15 × 1.5 mL screw-cap microcentrifuge tubes and were pelleted at 500 g for 1 min. Excess M9 was aspirated without disturbing the worm pellet. 600 μL ice-cold isolate buffer A (250 mM sucrose, 10 mM Tris (pH 7.5), 1 mM EDTA, 1 mM PMSF (freshly prepared)) and 300 μL cold glass beads were then added to each tube. Tubes were incubated on ice for 10 min, and the worms were then lysed by bead beating (6 x 30 s, with 1 min cooling intervals). Tubes containing worm lysate were centrifuged at 1,000 g for 10 min at 4 °C and the supernatant was transferred to 15 new microcentrifuge tubes on ice. The tubes were centrifuged a second time at 1,000 g for 10 min at 4 °C and the supernatant was once again transferred to 15 new microcentrifuge tubes on ice. These tubes were then centrifuged at 16,000 g for 10 min at 4 °C. The resulting mitochondrial pellet was washed twice by re-suspension in 300 μL of ice-cold isolate buffer B (250 mM sucrose, 10 mM Tris (pH 7.5), 1 mM EDTA). Following the final wash, isolation buffer was aspirated from each tube and the pellets were flash-frozen in ethanol/dry ice and stored at −80 °C until needed.
(§2) The enzymatic activities of individual ETC complexes (I-IV) were assessed spectrophotometrically in isolated mitochondria using a Varioskan LUX Multimode plate reader (ThermoFisher Scientific). Mitochondrial pellets previously isolated were thawed on ice and resuspended in ice-cold isolation buffer (250 mM sucrose, 10 mM Tris (pH 7.5), 1 mM EDTA). The BCA assay (Walker, 1994) was used to quantify the protein concentration of mitochondria suspensions; solutions were diluted to a concentration of 0.2 mg/mL for use in all assays. For the complex I assay, mitochondria pellets were freeze-thawed on ice three times to increase enzyme accessibility. […] 20 μL mitochondria suspension was then added/mixed with a pipette to initiate the reaction. Immediately following the addition of mitochondria, absorbance was measured (complex I and II: 600 nm; complex III and IV: 550 nm) in 30 s intervals over 15 min. Enzymatic activity was determined in each reaction by plotting absorbance versus time and calculating the slope of the curve during the initial linear phase of the reaction. […] Percent activity of each complex was calculated by dividing the enzyme-specific activity of each well by the enzyme-specific activity of the corresponding solvent controls.
Chemical solutions were prepared in complex I assay buffer composed of 25 mM KPi buffer (pH 7.5), 3 mg/mL bovine serum albumin (BSA), 80 μM NADH, 60 μM decylubiquinone, 160 μM DCIP, 2 μM antimycin A and 2 mM KCN.
For preliminary screens of hit compounds, compounds were screened at 100 μM; data are the average of at least three biological replicates.

L1 wild-type C. elegans [3] = experiment: microbe, parasite or virus in culture; settings: Caenorhabditis elegans, read-out: C. elegans KCN Survival Assay LC50, estimated from fitted dose-response curves; mean of at least two biological replicates
L1 wild-type C. elegans [4] = settings: […]; for Relative Motility: relative to DMSO controls, single biological replicate
[5] = molecular target: C. elegans complex II (succinate dehydrogenase) (Caenorhabditis elegans, UniProt O62215+P41956+Q09545); experiment: In vitro complex II activity assay, C. elegans mitochondria; type: biochemical
C. elegans complex II (succinate dehydrogenase), sequence (P41956 30-182): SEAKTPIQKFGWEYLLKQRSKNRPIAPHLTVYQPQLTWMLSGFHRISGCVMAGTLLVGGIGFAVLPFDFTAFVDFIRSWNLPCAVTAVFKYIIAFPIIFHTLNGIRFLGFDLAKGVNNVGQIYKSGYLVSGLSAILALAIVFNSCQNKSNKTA
C. elegans complex II (succinate dehydrogenase), sequence (Q09545 22-298): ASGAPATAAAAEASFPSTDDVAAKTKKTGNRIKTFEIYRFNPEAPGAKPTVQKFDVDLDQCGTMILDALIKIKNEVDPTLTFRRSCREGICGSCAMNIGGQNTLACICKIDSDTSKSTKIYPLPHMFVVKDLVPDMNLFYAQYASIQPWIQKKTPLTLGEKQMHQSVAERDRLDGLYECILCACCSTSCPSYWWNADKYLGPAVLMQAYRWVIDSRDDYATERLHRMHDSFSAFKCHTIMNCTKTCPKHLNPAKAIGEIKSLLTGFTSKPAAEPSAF
C. elegans complex II (succinate dehydrogenase), sequence (Q09508 32-646, further chain): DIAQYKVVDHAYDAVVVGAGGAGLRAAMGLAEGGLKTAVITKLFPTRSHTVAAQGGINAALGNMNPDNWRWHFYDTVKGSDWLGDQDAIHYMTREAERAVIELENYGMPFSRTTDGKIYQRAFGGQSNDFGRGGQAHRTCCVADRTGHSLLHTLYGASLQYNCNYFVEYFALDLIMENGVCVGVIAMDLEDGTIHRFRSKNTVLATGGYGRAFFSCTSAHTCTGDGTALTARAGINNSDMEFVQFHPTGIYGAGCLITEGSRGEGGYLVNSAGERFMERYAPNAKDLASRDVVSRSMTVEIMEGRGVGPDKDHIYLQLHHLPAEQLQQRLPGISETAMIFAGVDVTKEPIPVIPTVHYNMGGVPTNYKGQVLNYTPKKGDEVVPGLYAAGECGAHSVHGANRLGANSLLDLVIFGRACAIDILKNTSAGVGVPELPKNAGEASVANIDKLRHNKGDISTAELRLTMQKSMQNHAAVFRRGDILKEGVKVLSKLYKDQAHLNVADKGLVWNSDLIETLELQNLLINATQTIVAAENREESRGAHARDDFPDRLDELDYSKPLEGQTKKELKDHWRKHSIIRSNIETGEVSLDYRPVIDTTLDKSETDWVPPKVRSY
C. elegans complex II (succinate dehydrogenase), sequence (O62215 31-145): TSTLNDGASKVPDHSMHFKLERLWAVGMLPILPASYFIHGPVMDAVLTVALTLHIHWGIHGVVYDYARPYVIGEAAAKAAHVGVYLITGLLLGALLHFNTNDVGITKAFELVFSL
Description: as §1, §2
Complex II (succinate dehydrogenase) activity was assessed using the DCIP-coupled method previously described in Burns et al.[24].
For preliminary screens of hit compounds, compounds were screened at 100 μM; data are the average of at least three biological replicates. The complex I and II activity assays were used for additional dose-response experiments.

[6] = test system: C. elegans complex IV (cytochrome C oxidase); experiment: In vitro complex IV activity assay, C. elegans mitochondria; type: biochemical, Caenorhabditis elegans; settings: for CIV Activity: 100 μM inhibitor, in vitro activity relative to solvent control, N2 C. elegans mitochondria
Description: as §1, §2
Complex IV (cytochrome C oxidase) activity was determined by following the oxidation of CytC in the protocol outlined by Janssen and Boyle, 2019[60]. Reduced CytC was prepared fresh by adding 1 μL increments of 1 M dithiothreitol to a 1 mM solution of CytC and vortexing. A colour change from brown to orange/pink signals when CytC has been reduced.

[7] = test system: C. elegans complex III (decylubiquinol-cytochrome C reductase); experiment: In vitro complex III activity assay, C. elegans mitochondria; type: biochemical, Caenorhabditis elegans; settings: for CIII Activity: 100 μM inhibitor, in vitro activity relative to solvent control, N2 C. elegans mitochondria
Description: as §1, §2
Antimycin A-sensitive complex III (decylubiquinol-cytochrome C […]) activity was determined by measuring the reduction of cytochrome C (CytC) as optimized in Luo et al.[59]. Decylubiquinol for complex III assays was prepared fresh as described in Janssen and Boyle, 2019[60].

[8] = read-out: C. elegans (ben-1) Development & Viability Assay LC50
[9] = read-out: C. elegans ben-1 log10 LC50 (converted)
[10] = in vitro complex I dose response on C. elegans mitochondria, average of at least two biological replicates, fit in R (DRC), read-out: IC50 C. elegans complex I
[11] = wild-type C. elegans mitochondria, estimated from fitted dose-response curves, read-out: C. elegans Complex I IC50
[12] = 100 μM of NPD compound, C. elegans mitochondria, individual biological replicates, 100 µM
[13] = 100 µM compound, relative to solvent control, mean (SEM)
[14] = 100 μM of NPD compound, C. elegans mitochondria, individual biological replicates
[15] = 100 μM of NPD compound, C. elegans mitochondria, mean of four biological replicates
[16] = wild-type C. elegans mitochondria, read-out: C. elegans Complex I IC50
[17] = 50 μM compound, hit = relative motility below 0.25 3 hours after removal of KCN
[18] = 50 μM compound, worm motility 3 hours after removal of KCN

| Compound | LC50 [1, 8] [µM] | LC50 [1, 9] [µM] | IC50 [2, 10] [µM] | Log IC50 C. elegans complex I ([2]; C. elegans mitochondria) [µM] | IC50 [2, 11] [µM] | LC50 (L1 wild-type C. elegans [3]) [µM] | IC50 [2, 16] [µM] | Screen "Hit" (L1 wild-type C. elegans [4]; [17]) | Relative Motility (L1 wild-type C. elegans [4]; [18]) | other results |
| --- | --- | --- | --- | --- | --- | --- | --- | --- | --- | --- |
| c1ccc2[nH]c(CSc3nc4ccccc4o3)nc2c1 [Compound 5668941] | 123 | 123 | 19.6 | 1.29 | 19.6 | 26.8 | – | – | – | Screen "Hit" (L1 wild-type C. elegans [4]; 50 μM, KCN survival assay, hit = relative motility below 0.25): Y (hits were identified as compounds that reduced relative motility below 0.25 (75% reduction)); Relative Motility (L1 wild-type C. elegans [4]; 50 μM, worm motility 3 hours after the removal of KCN (endpoint)): 0.130 |
| CCCCCC[C@H]1C(=O)O[C@H](C)[C@H](NC(=O)c2cccc(NC=O)c2O)C(=O)O[C@@H](C)[C@@H]1OC(=O)CC(C)C [Antimycin A, reference compound] | – | – | – | – | – | – | – | – | – | activity at 100 µM ([5]; 100 µM compound, relative to solvent control, mean (SEM), read-out: % Activity Complex II): 79.5%; activity at 100 µM ([5]; 100 μM inhibitor, in vitro activity relative to solvent control, N2 C. elegans mitochondria, Mean, read-out: CII Activity): 79.5%; Percent in vitro activity, Complex II (single replicate Rep1-Rep4) [5, 12]: 114.678% and 73.200% and 61.398% and 68.876%; activity at 100 µM ([5]; 100 μM of NPD compound, C. elegans mitochondria, mean of four biological replicates, read-out: Percent in vitro activity, Complex II (Mean)): 79.5%; activity at 100 µM ([2]; 100 µM compound, relative to solvent control, mean (SEM), read-out: % Activity Complex I): 117%; activity at 100 µM ([2]; 100 μM inhibitor, in vitro activity relative to solvent control, N2 C. elegans mitochondria, Mean, read-out: CI Activity): 117%; activity at 100 µM ([2]; 100 μM inhibitor, in vitro activity relative to solvent control, N2 C. elegans mitochondria, single replicate, read-out: CI Activity): 119%; Percent in vitro activity, Complex I (single replicate Rep1-Rep4) [2, 12]: 116.806% and 115.361% and 116.592%; activity at 100 µM ([2]; 100 μM of NPD compound, C. elegans mitochondria, individual biological replicates, read-out: Percent in vitro activity, Complex I (single replicate Rep1-Rep4)): 119%; activity at 100 µM ([2]; 100 μM of NPD compound, C. elegans mitochondria, mean of four biological replicates, read-out: Percent in vitro activity, Complex I (Mean)): 117%; % Activity Complex IV [6, 13]: 94.00 (1.10) %; CIV Activity ([6]; Mean): 94.002%; CIV Activity ([6]; single replicate): 97.456% and 95.348% and 87.857% and 95.349%; Percent in vitro activity, Complex IV (single replicate Rep1-Rep4) [6, 14]: 97.456% and 95.348% and 87.857% and 95.349%; Percent in vitro activity, Complex IV (Mean) [6, 15]: 94.002%; % Activity Complex III [7, 13]: 0.00 (0.0) %; CIII Activity ([7]; Mean): 0.000%; CIII Activity ([7]; single replicate): 0.000%; Percent in vitro activity, Complex III (single replicate Rep1-Rep4) [7, 14]: 0.000%; Percent in vitro activity, Complex III (Mean) [7, 15]: 0.000% |
| CCc1ccc(OC(C)c2nc3ccccc3[nH]2)cc1 (centres unmarked) [STK914290] | 227 | 228 | 71.3 | 1.85 | – | 22.4 | 71.3 | Y (hits were identified as compounds that reduced relative motility below 0.25 (75% reduction)) | 0.082 | – |
| CCc1ccc(CNc2nc3ccccc3n2C)cc1 [STK498539] | 214 | 214 | 40.8 | 1.61 | – | 30.5 | 40.8 | Y (hits were identified as compounds that reduced relative motility below 0.25 (75% reduction)) | 0.042 | – |
| C(=C\c1nc2ccccc2[nH]1)/c1ccccc1 [STK871091] | 148 | 148 | – | – | > 75 | 15 | – | Y (hits were identified as compounds that reduced relative motility below 0.25 (75% reduction)) | 0.008 | – |
